Patent US5861414A, “Piperidineacetic acid derivatives useful as fibrinogen antagonist agent” (priority 1994, dated 1999)
Where a name gives a salt, the structure may show the parent alone. Read-outs that look alike come from different tables or passages of the source.

Test system: human washed and resuspended platelets (HRP)
Assay: Inhibition of U-46619-induced platelet aggregation in washed human platelets (turbidometric, Born-type aggregometer)
Assay type: cell-based
Details: read-out: IC50, concentration of the compound required to inhibit platelet aggregation by 50%
Method: Inhibition of platelet aggregation by compounds of the invention was determined according to the following procedure. […] The blood was treated with aspirin (0.1 mM) and prostacyclin (0.06 μM) prior to centrifugation (1400 g, 4 minutes, 20° C.). The supernatant platelet-rich plasma (PRP) was isolated and further centrifuged (1400 g, 10 minutes, 20° C.) to sediment the platelets. […] This platelet suspension was centrifuged (1400 g, 8 minutes, 20° C.) and the resultant platelet pellet was resuspended into the physiological salt solution adjusted to pH 7.4. The resultant washed-platelet preparation was diluted to give a final platelet count of […]. […] Platelet aggregation was quantified using a turbidometric method.

[1] = Homo sapiens, Platelet, washed human platelets, 37° C, 5 minutes pre-incubation, agonist 1 μM U-46619, fibrinogen 0.5 mg/ml

Row | SMILES | IC50 [1] [nM] | also measured
1 | O=C(O)CN1CCC(c2n[nH]c3cc(/C=C/C4CCNCC4)ccc23)CC1 [2 (ii), {4-[6-(2-Piperidin-4-yl-(E)-vinyl)-1H-indazol-3-yl]-piperidin-1-yl}-aceticacid trifluoroacetate] | 92 | –
2 | O=C(O)CN1CCC(c2n[nH]c3cc(/C=C/C4CCNCC4)ccc23)CC1 [2 (iv), {4-[6-(2-Piperidin-4-yl-(E)-vinyl)-1H-indazol-3-yl]-piperidin-1-yl}-aceticacid, hydrochloride hydrate] | – | IC50 (Homo sapiens, Platelet): 67 nM
3 | O=C(O)CN1CCC(c2nn(Cc3ccc(Cl)c(Cl)c3)c3cc(/C=C/C4CCNCC4)ccc23)CC1 [3 (ii), {4-[1-(3,4-Dichloro-benzyl)-6-(2-piperidin-4-yl-(E)-vinyl)-1H-indazol-3-yl]-piperidin-1-yl}-acetic acid trifluoroacetate] | 74 | –
4 | O=C(O)CN1CCC(c2nn(Cc3ccc(Cl)cc3)c3cc(CCC4CCNCC4)ccc23)CC1 [5 (iii), {4-[1-(4-Chloro-benzyl)-6-(2piperidin-4-yl-ethyl)-1H-indazol-3-yl-piperidin-1-yl}-acetic acid trifluoroacetate] | 80 | –
5 | O=C(O)CN1CCC(c2nn(Cc3ccc(F)cc3)c3cc(/C=C/C4CCNCC4)ccc23)CC1 [6 (ii), {4-[1-(4-Fluoro-benzyl)-6-(2-piperidin-4-yl-(E)-vinyl)-1H-indazol-3-yl]-piperidin-1-yl}-acetic acid hydrochloride] | – | IC50 (washed human platelets, 37° C, 5 minutes pre-incubation, agonist 1 μM U-46619, fibrinogen 0.5 mg/ml, hydrochloride): 110 nM

Second part, led by results:

Row | IC50 [1] [nM] | SMILES | also measured
6 | 126 | O=C(O)CN1CCC(c2nn(Cc3ccc(F)cc3)c3cc(/C=C/C4CCNCC4)ccc23)CC1 [1 (xiii), {4-[1-(4-Fluoro-benzyl)-6-(2-piperidin-4-yl-(E)-vinyl)-1H-indazol-3-yl]-piperidin-1-yl}-acetic acid trifluoroacetate] | –
7 | 72 | O=C(O)CN1CCC(c2nn(Cc3ccc(Cl)cc3)c3cc(/C=C/C4CCNCC4)ccc23)CC1 [4 (ii), (4-{1-(4-Chloro-benzyl)-6-[2-piperidin-4-yl-(E)-vinyl]-1H-indazol-3-yl}-piperidin-1-yl)-acetic acid trifluoroacetate] | –
8 | 107 | O=C(O)CN1CCC(c2nn(Cc3ccccc3)c3cc(/C=C/C4CCNCC4)ccc23)CC1 [7 (ii), {4-[1-Benzyl-6-(2-piperidin-4-yl-(E)-vinyl)-1H-indazol-3-yl]-piperidin-1-yl}-acetic acid trifluoroacetate] | –
